Measurements: patent US6046231A, “Use of 4'-bromoflavone in a cancer chemopreventative composition and method” (The Board of Trustees of the University of Illinois, priority 1999, dated 2000)
Read-outs that look alike come from different tables or passages of the source.

Key:
[1] = system: quinone reductase (QR), Hepa 1c1c7 cells; experiment: Quinone reductase (QR) induction in Hepa 1c1c7 cells; format: cell-based, murine; settings: for CI, chemoprevention index (IC50/CD): 2880 min
Source text: This test was used because the specific activity of QR rises concomitantly with other phase II enzymes in many animal tissues in response to various chemopreventive agents. The study included natural and synthetic B-ring substituted flavones, as well as biosynthetic precursor chalcones and flavanones.
Determination of Quinone Reductase Activity in Cell Cultures. To determine the potency of inducers, Hepa 1c1c7 murine hepatoma cells as described in the Gerhauser publication were placed in 96-well plates at a density of 1×10^4 cells/ml in 200 μl of medium. After a preincubation period of 24 hr, the media were decanted and 190 μl fresh media were added to each well. Ten (10) μl test agents dissolved in 10% DMSO (final concentration of DMSO is 0.5%) with a serial 2-fold dilutions were introduced to each well, and the plates were incubated for an additional 48 hours. Specific QR activity was determined by measuring the NADPH-dependent menadiol-mediated reduction of 3-(4, 5-dimethylthiazo-2-yl)-2,5-diphenyltetrazolium bromide to blue formazan formed per mg protein per minute. Protein was determined in an identical set of test plates by staining with crystal violet. Hepa 1c1c7 cells retain many characteristics of normal issues, particularly the capacity for carcinogen activation and metabolism. They are amenable to precise control of environmental, nutritional, and hormonal factors. […] Induction of QR activity was calculated by comparing the QR specific activity of agent-treated cells with that of solvent-treated cells, and a plot of ratio was generated. CD represents the concentration required to double QR induction. Chemopreventive index (CI) is an indexing value generated by comparing CD with IC50 (concentration for 50% inhibition of cell viability) values.
Induction of Quinone Reductase in Hepa 1c1c7 Cells. […] Modification of the B-ring of chalcones, flavanones, and flavones was hypothesized to induce torsion of the B-ring, and, therefor, simulate out-of-plane distortions characteristic of polycyclic aromatic hydrocarbons, such as DMBA. Induction of QR activity was calculated by comparing the QR specific activity of agent-treated cells with the QR specific activity of solvent-treated cells, and a plot of ratios was generated. CD represents the concentration required for a double fold of induction. CI (Chemopreventive Index) is a value obtained by comparing CD with IC50 (concentration for 50% inhibition of cell viability in […]).

Hepa 1c1c7 cells = experiment: Hepa 1c1c7 cell viability (cytotoxicity); format: cell-based, murine; settings: Mus musculus
cytochrome P4501A1 = target: T1, cytochrome P4501A1 (Rattus norvegicus, UniProt P00185); experiment: biochemical
T1 sequence (P00185 1-524): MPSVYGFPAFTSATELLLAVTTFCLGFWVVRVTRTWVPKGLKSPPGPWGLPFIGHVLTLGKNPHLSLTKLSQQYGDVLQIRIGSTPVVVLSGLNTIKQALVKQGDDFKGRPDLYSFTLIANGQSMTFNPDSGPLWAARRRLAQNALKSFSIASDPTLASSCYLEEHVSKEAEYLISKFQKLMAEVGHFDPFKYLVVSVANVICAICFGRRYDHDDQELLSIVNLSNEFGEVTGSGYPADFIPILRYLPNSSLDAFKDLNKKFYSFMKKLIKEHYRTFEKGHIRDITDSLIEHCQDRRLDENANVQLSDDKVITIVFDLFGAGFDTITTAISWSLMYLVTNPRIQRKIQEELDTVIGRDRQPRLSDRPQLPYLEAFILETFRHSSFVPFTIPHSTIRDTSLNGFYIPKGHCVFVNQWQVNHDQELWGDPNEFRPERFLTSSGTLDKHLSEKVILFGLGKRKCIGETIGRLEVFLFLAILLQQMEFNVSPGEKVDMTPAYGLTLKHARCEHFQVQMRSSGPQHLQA
Procedure: Inhibition of DMBA-induced Cytochrome P4501A1 Activity. Female Sprague Dawley rats (43 days of age) were treated with DMBA (i.g.), and liver microsomes were isolated through differential centrifugation. Cytochrome P4501A1 activity was monitored by assessing EROD activity. Briefly, 200 μl of microsomal protein (2 mg/ml) were added to a reaction mixture containing 640 μl of 0.05 M Tris-HCl buffer (pH 7.5), 100 μl of BSA (10 mg/ml in Tris buffer), 20 μl of 0.25 M MgCl2, 40 μl of cofactor solution (0.3282 g of NADP and 1.417 g of glucose 6-phosphate in 40 ml of 1.15% KCl), 2.5 units of glucose 6-phosphate dehydrogenase, 10 μl of substrate (1 mg of ethoxyresorufin in 10 ml of methanol) and 10 μl of various concentrations of 4'-BF in DMSO (α-naphthoflavone as positive control; DMSO as negative control). After incubating at 37° C. for 4 min, the reactions were terminated by the addition of 2 ml of methanol. Samples were then centrifuged for 20 min at 2,000×g. and 200 μl of the supernatant fractions were transferred to 96-well plates and read on a spectrofluorimeter (500 nm excitation and 585 nm emission). Assays were conducted in triplicate and the percent of inhibition was calculated as: [1-(sample A-blank)/(DMSO A-blank)]×100.

[2] = Mus musculus, Hepa-1c1c7, 48 h, Hepa 1c1c7 cells, 48 h, read-out: CD, concentration to double the specific activity of QR
[3] = Hepa-1c1c7, Hepa 1c1c7 cells, read-out: IC50, concentration for 50% inhibition of cell viability
[4] = Hepa 1c1c7 cells, 48 h, read-out: CD, concentration to double the specific activity of QR
[5] = Mus musculus, Hepa-1c1c7, 48 h, read-out: CD, concentration to double the specific activity of QR, Hepa 1c1c7 cells, 48 h
[6] = Hepa-1c1c7, read-out: IC50, concentration for 50% inhibition of cell viability

SMILES	CI, chemoprevention index (IC50/CD) [1]	IC50 (cytochrome P4501A1) [µM]	Cq ([1]; Hepa 1c1c7 cells)	EC (2-fold) [1, 2] [µM]	IC50 (Hepa 1c1c7 cells; [3]) [µM]	EC (2-fold) [1, 4] [µM]	EC (2-fold) [1, 5] [µM]	IC50 (Hepa 1c1c7 cells; [6]) [µM]	EC (2-fold) ([1]; Hepa 1c1c7 cells, 48 h, listed as 3'-chloroflavone, read-out: CD, concentration to double the specific activity of QR) [µM]
COc1cccc(OC)c1/C=C/C(=O)c1ccccc1O [2'-Hydroxy-2,6-dimethoxychalcone]	26	–	3.7 µM	0.53	14	0.54	–	–	–
O=C(/C=C/c1ccccc1)c1ccccc1 [Chalcone, reference compound]	–	–	–	–	33	–	–	–	–
Cc1ccccc1/C=C/C(=O)c1ccccc1O [2'-Hydroxy-2-methylchalcone]	54	–	9.0 µM	0.67	36	–	–	–	–
O=c1cc(-c2ccccc2F)oc2ccccc12 [2'-Fluoroflavone]	104	–	10 µM	0.8	> 83	0.80	–	–	–
O=C(/C=C/c1ccc(Br)cc1)c1ccccc1O [4-Bromo-2'-hydroxychalcone]	4	–	66 µM	–	–	–	18	66	–
O=c1cc(-c2ccc(Cl)cc2)oc2ccccc12 [4'-Chloroflavone]	> 5000	–	0.66 µM	–	–	0.02	0.016	> 78	–
COc1ccccc1-c1cc(=O)c2ccccc2o1 [2'-methoxyflavone]	–	–	–	0.01 to 1	–	–	–	–	–
O=c1cc(-c2cccc(Cl)c2)oc2ccccc12 [3'-Chloroflavone]	> 40	–	toxic	–	–	< 0.58	–	23	0.27
O=C(/C=C/c1ccccc1Br)c1ccccc1O [2-Bromo-2'-hydroxychalcone]	21	–	2.0 µM	–	–	–	0.53	11	–
O=C1CC(c2cccc3ccccc23)Oc2ccccc21 (centres unmarked)	24	–	8.6 µM	1.8	43	–	–	–	–
COc1ccccc1/C=C/C(=O)c1ccccc1O [2'-Hydroxy-2-methoxychalcone]	55	–	1.8 µM	0.31	17	–	–	–	–

The next lines start with results.

CI, chemoprevention index (IC50/CD) [1]	IC50 (cytochrome P4501A1) [µM]	SMILES	Cq ([1]; Hepa 1c1c7 cells)	EC (2-fold) [1, 2] [µM]	IC50 (Hepa 1c1c7 cells; [3]) [µM]	EC (2-fold) [1, 4] [µM]	EC (2-fold) [1, 5] [µM]	IC50 (Hepa 1c1c7 cells; [6]) [µM]	EC (2-fold) ([1]; Hepa 1c1c7 cells, 48 h, listed as 3'-chloroflavone, read-out: CD, concentration to double the specific activity of QR) [µM]
> 125	–	COc1ccccc1C1CC(=O)c2ccccc2O1 (centres unmarked) [2'-Methoxyflavanone]	6.9 µM	0.63	> 79	–	–	–	–
–	0.09	O=c1cc(-c2ccccc2)oc2c1ccc1ccccc12 [a-naphthoflavone, α-naphthoflavone, reference compound]	–	–	–	–	–	–	–
81	–	Cc1ccccc1C1CC(=O)c2ccccc2O1 (centres unmarked) [2'-Methylflavanone]	6.8 µM	1	81	1.00	–	–	–
42	–	O=c1cc(-c2ccccc2)oc2ccccc12 [Flavone]	8.3 µM	2.5	106	–	–	–	–
> 23	–	O=C(/C=C/c1cccc(C(F)(F)F)c1)c1ccccc1O [2'-Hydroxy-3-trifluoromethylchalcone]	0.55 µM	< 0.55	12.8	–	–	–	–
3000	–	O=c1cc(-c2ccc(C(F)(F)F)cc2)oc2ccccc12 [4'-Trifluoromethylflavone]	0.1 µM	0.03	90	–	–	–	–
63	–	O=c1cc(-c2cccc(F)c2)oc2ccccc12 [3'-Fluoroflavone]	1.24 µM	0.67	42	–	–	–	–
16	–	O=C(/C=C/c1cccc(Br)c1)c1ccccc1O [3-Bromo-2'-hydroxychalcone]	8.2 µM	1.3	21	–	–	–	–
> 24	–	O=c1cc(-c2ccc(F)cc2)oc2ccccc12 [4'-Fluoroflavone]	32 µM	3.4	> 83	–	–	–	–
27	–	O=C1CC(c2ccc(Br)cc2)Oc2ccccc21 (centres unmarked) [4'-Bromoflavanone]	11 µM	2.3	63	–	–	–	–
32	–	O=c1cc(-c2cccc(Br)c2)oc2ccccc12 [3'-Bromoflavone]	4.4 µM	0.1	3.2	–	–	–	–
37	–	O=C(/C=C/c1ccccc1[N+](=O)[O-])c1ccccc1O [2'-Hydroxy-2-nitrochalcone]	3.6 µM	0.3	11	–	–	–	–
> 100	–	O=C(/C=C/c1ccc(C(F)(F)F)cc1)c1ccccc1O [2'-Hydroxy-4-trifluoromethylchalcone]	1 µM	< 0.55	55	–	–	–	–
